# According to ChEMBL document CHEMBL1944619, “QSAR studies for prediction of cross-β sheet aggregate binding affinity and selectivity” (Bioorg Med Chem, 2012):
# Experiment: Displacement of thioflavin-T from amyloid beta (1 to 40) aggregates by thioflavin-T fluorescent dye assay
row,Structure (SMILES),IC50 [µM]
1,COc1ccc2nc(/N=N/c3ccc(N(C)C)cc3)sc2c1,3.2
2,CN(C)c1ccc(/C=C/c2sc3ccc(F)cc3[n+]2C)cc1,1
3,Cc1ccc2sc(/C=C/c3ccc(N(C)C)cc3)[n+](C)c2c1,0.4
4,COc1ccc2c(c1)sc(/C=C/c1ccc(N(C)C)cc1)[n+]2C,0.3
5,CN(C)c1ccc(/C=C/c2sc3cc([N+](=O)[O-])ccc3[n+]2C)cc1,1
6,CN(C)c1ccc(/N=N/c2nc3ccccc3s2)cc1,22
7,COc1ccc2c(c1)sc(/N=N/c1ccc(N(C)C)cc1)[n+]2C,0.41
8,CN(C)c1ccc(/N=N/c2sc3ccccc3[n+]2C)cc1,1.3
9,CN(C)c1ccc(/C=C/c2sc3ccccc3[n+]2Cc2ccc(-c3ccccc3)cc2)cc1,0.24
10,CN(C)c1ccc(/C=C/c2sc3ccccc3[n+]2Cc2cccc(OC(=O)c3ccccc3)c2)cc1,0.23
11,CN(C)c1ccc(/C=C/c2sc3ccccc3[n+]2CCCC(c2ccccc2)c2ccccc2)cc1,0.46
12,CCCCCCC[n+]1c(/C=C/c2ccc(N(CCCC)CCCC)cc2)sc2ccccc21,0.6
13,CN(C)c1ccc(/C=C/c2sc3ccc(Cc4ccccc4)c(Cc4ccccc4)c3[n+]2C)cc1,0.21
14,CN(C)c1ccc(/C=C/c2nc3cc(Cl)ccc3s2)cc1,> 100
15,CN(C)c1ccc(/C=C/c2nc3ccc(N(C)C)cc3s2)cc1,> 100
16,CN(C)c1ccc(/C=C/c2sc3ccc(Cl)cc3[n+]2C)cc1,0.43
17,CN(C)c1ccc(/C=C/c2sc3c(Cc4ccccc4)c(Cc4ccccc4)ccc3[n+]2C)cc1,0.21
18,COc1ccc2c(c1)sc(/C=C/c1ccc(N(C)C)c3ccccc13)[n+]2C,0.43
19,COc1ccc2nc(/N=N/c3ccc(N(C)C)c4ccccc34)sc2c1,2.5
20,CN(C)c1ccc(/C=C/c2sc3ccccc3[n+]2C)cc1,1
21,CC[n+]1c(/C=C/c2ccc(N(C)C)cc2)sc2ccccc21,0.4
22,CN(C)c1ccc(/C=C/c2nc3ccccc3s2)cc1,> 100

# These reach a lower IC50. Values come first.
row,IC50 [µM],Structure (SMILES)
1,0.16,CCCC[n+]1c(/C=C/c2ccc(N(C)C)cc2)sc2ccccc21
2,0.093,CCCCCCC[n+]1c(/C=C/c2ccc(N(C)C)cc2)sc2ccccc21
3,0.11,CN(C)c1ccc(/C=C/c2sc3ccccc3[n+]2Cc2ccccc2)cc1
4,0.18,Cc1ccc2c(c1)sc(/C=C/c1ccc(N(C)C)cc1)[n+]2C
5,0.17,CN(C)c1ccc(/C=C/c2sc3ccc(F)cc3[n+]2Cc2ccccc2)cc1
6,0.13,Cc1ccc2c(c1)sc(/C=C/c1ccc(N(C)C)cc1)[n+]2Cc1ccccc1
7,0.14,CCCCCCC[n+]1c(/C=C/c2ccc(N(C)C)cc2)sc2cc(OC)ccc21
8,0.12,CN(C)c1ccc(/C=C/c2sc3ccccc3[n+]2Cc2ccc(F)cc2)cc1
9,0.1,CN(C)c1ccc(/C=C/c2sc3ccccc3[n+]2Cc2ccccc2-c2ccccc2)cc1
10,0.12,CN(C)c1ccc(/C=C/c2sc3ccccc3[n+]2Cc2cccc(Oc3ccccc3)c2)cc1
11,0.2,CN(C)c1ccc(/C=C/c2sc3ccccc3[n+]2CCCc2ccccc2)cc1
12,0.1,CN(C)c1ccc(/C=C/c2sc3ccccc3[n+]2C/C=C/c2ccccc2)cc1
13,0.14,CN(C)c1ccc(/C=C/c2sc3ccccc3[n+]2CCCOCc2ccccc2)cc1
14,0.17,CN(C)c1ccc(/C=C/c2sc3ccccc3[n+]2CCCCOc2ccccc2)cc1
15,0.17,CN(C)c1ccc(/C=C/c2sc3ccccc3[n+]2CCCCCc2ccccc2)cc1
16,0.17,CN(C)c1ccc(/C=C/c2sc3ccccc3[n+]2CCCCCOc2ccccc2)cc1
17,0.12,CN(C)c1ccc(/C=C/c2sc3ccccc3[n+]2CCCC2CCCCC2)cc1
18,0.14,CCCCCCC[n+]1c(/C=C/c2ccc(N(CC)CC)cc2)sc2ccccc21
19,0.16,CCCCCCC[n+]1c(/C=C/c2ccc(-n3cccc3)cc2)sc2ccccc21
20,0.12,CN(C)c1ccc(/C=C/c2sc3cc(Cc4ccccc4)c(Cc4ccccc4)cc3[n+]2C)cc1
21,0.12,CN(C)c1ccc(/C=C/c2sc3ccccc3[n+]2Cc2ccc3ccccc3c2)cc1
22,0.16,CCCCCCC[n+]1c(/C=C/c2ccc(N(C)C)c3ccccc23)sc2ccccc21
23,0.12,Nc1ccc(/N=N/c2nc3ccccc3s2)c2ccccc12
